Assay results: patent US20160084820A1, “METHODS OF TREATING OR PREVENTING PERIODONTITIS AND DISEASES ASSOCIATED WITH PERIODONTITIS” (priority 2010, published 2016)
Like-named read-outs stand apart in the source and are kept apart here.

Experiments:
IL-12p70 production = assay: IL-12p70 induction in IFN-gamma-primed macrophages, ELISA; type: cell-based, mouse; details: for reversal of C5a inhibition of P. gingivalis- or LPS-induced IL-12p70: C5a 50 nM
Protocol: (§1) Induction of nitric oxide production was assessed by measuring the amount of NO2− (stable metabolite of nitric oxide) in stimulated culture supernatants using a Griess reaction-based assay kit (R&D Systems), as previously performed (Hajishengallis et al., 2008, PNAS USA, 105:13532-7). Levels of cAMP in activated cell extracts were measured using a cAMP enzyme immunoassay kit (Cayman Chemical) (Liang et al., 2007, J. Immunol., 178:4811-9). C5a-induced intracellular calcium mobilization was monitored in cells (4×10^6) loaded with 1 μM Indo 1-AM in the presence of 1 μM pluronic acid, as previously described (Ali et al., 1993, J. Biol. Chem., 268:24247-54). Calcium traces were recorded in a Perkin-Elmer fluorescence spectrometer (Model 650-19) with an excitation wavelength of 355 nm and an emission wavelength of 405 nm. Induction of cytokine production in activated cell culture supernatants or in the peritoneal fluid of infected mice was determined by ELISA using kits from eBioscience or Cell Sciences. C5a levels were measured by sandwich ELISA, employing a pair of capture and biotinylated anti-05a mAbs (BD Pharmingen), according to the manufacturer's protocol.
Whether C5a inhibits P. gingivalis-induced IL-12p70 in peritoneal macrophages was investigated. Since macrophages are generally poor producers of IL-12p70 in vitro unless primed with IFN-gamma, macrophages used in these experiments were primed with IFN-gamma (0.1 μg/ml). […] The host TLR response against P. gingivalis is predominantly mediated by TLR2, both in vitro and in vivo. Therefore, whether C5a-mediated inhibition of P. gingivalis-induced IL-12p70 could involve a C5aR-TLR2 crosstalk additionally was examined.

intracellular cAMP = assay: cAMP enzyme immunoassay in P. gingivalis-stimulated macrophages; type: cell-based, mouse; details: C5aRA 1 μM; thapsigargin 1 μM; EGTA 5 mM; pertussis toxin 100 ng/ml; AMD3100 1 μg/ml; C5a 50 nM; 1 hour
nitric oxide production = assay: NO2− (nitric oxide) production, Griess reaction-based assay, macrophages; type: cell-based, mouse; details: 24 hours; for reversal of the inhibitory C5a effect on nitric oxide: SQ22536 200 μM, H89 5 μM, chelerythrin 5 μM, PKI 6-22 1 μM, KT5823 1 μM, C5a 50 nM
[1] = system: GSK3β Ser9-phosphorylation; assay: GSK3β Ser9 phosphorylation ELISA in macrophages; type: cell-based, mouse; details: PKI-6-22 1 μM; PD98059 25 μM
Protocol: PKA activity in lysates of activated cells was determined using the ProFluor™ PKA assay, according to the instructions of the manufacturer (Promega) (Hajishengallis et al., 2008, PNAS USA, 105:13532-7). Phosphorylation of GSK313 on Ser9 and total GSK3β were monitored using FACE™ GSK3β ELISA kits (Active Motif).

[2] = system: phagocytosed P. gingivalis in mouse peritoneal macrophages; type: cell-based, P. gingivalis ATCC 33277
Protocol: The viability of phagocytosed P. gingivalis was monitored by an antibiotic protection-based intracellular survival assay, as previously described (Wang et al., 2007, J. Immunol., 179:2349-58). Briefly, mouse peritoneal macrophages were allowed to phagocytose P. gingivalis (MOI=10:1; 5×10^6 bacteria and 5×10^5 cells) for […] at 37° C. This was followed by washing to remove extracellular nonadherent bacteria and 1-hour treatment with antibiotics (300 μg/ml gentamicin and 200 μg/ml metronidazole) to eliminate residual or extracellular adherent bacteria. The macrophages were subsequently cultured overnight (for a total of 24 hours) or for 48 hours Immediately after, the macrophages were washed and lysed in sterile distilled water, and viable counts of internalized P. gingivalis were determined by plating serial dilutions of macrophage lysates on blood agar plates subjected to anaerobic culture.
The viability of phagocytosed P. gingivalis was monitored by an antibiotic protection-based intracellular survival assay, as previously described (Wang et al., 2007, J. Immunol., 179:2349-58)). Briefly, mouse peritoneal macrophages were allowed to phagocytose P. gingivalis (at a MOI=10:1; 5×10^6 bacteria and 5×10^5 macrophages) for 30 min at 37° C. This was followed by washing to remove extracellular nonadherent bacteria and 1-hour treatment with antibiotics (300 μg/ml gentamicin and 200 μg/ml metronidazole) to eliminate residual or extracellular adherent bacteria. The macrophages were subsequently cultured overnight for a total of 24 hours Immediately after, the macrophages were washed and lysed in sterile distilled water and viable counts of internalized P. gingivalis were determined by plating serial dilutions of macrophage lysates on blood agar plates subjected to anaerobic culture.

P. gingivalis [3] = assay: I.p. challenge model: P. gingivalis CFU, NO2− and bacteremia; type: in vivo, mouse
Description: All animal procedures were approved by the Institutional Animal Care and Use Committee and performed in compliance with established federal and state policies.

[4] = system: P. gingivalis-induced cytokine production; details: C5aRA i.p. 25 pg/mouse; 5 h post-infection
Protocol: as §1
10-12 week-old mice were infected i.p. with P. gingivalis (5×10^7 CFU) and sampled by peritoneal lavage to measure production of cytokines and enumerate recovered CFU (following anaerobic growth on blood agar plates) (Hajishengallis et al., 2008, PNAS USA, 105:13532-7), as detailed in the respective figure description.
First, it was essential to determine whether C5aR signaling can regulate P. gingivalis-induced IL-12p70 production in vivo. For this purpose, wild-type mice were i.p.-administered C5aRA followed by i.p. challenge with P. gingivalis. Mice deficient in C5aR or TLR2 were similarly challenged with P. gingivalis, and all mice were sampled 5 h post-infection by peritoneal lavage.

P. gingivalis [5] = assay: Subcutaneous titanium-coil chamber model; type: in vivo, mouse; details: wild-type mice, 24 h post-infection
Protocol: Using the ‘chamber’ model, bacteria were injected into the lumen of a subcutaneously implanted titanium-coil chamber such that bacterial interactions with recruited inflammatory cells can be assessed accurately and quantitatively (Burns et al., 2006, J. Immunol., 177:8296-8300; Genco et al., 1991, Infect. Immun., 59:1255-63; and Graves et al., 2008, J. Clin. Periodontol., 35:89-105).

[6] = system: periodontal inflammatory responses; assay: Oral Pg infection, gingival IL-1beta and TNF-alpha mRNA after local C5aRA microinjection; type: in vivo, mouse
Protocol: Experiments were performed to determine an effective dose of C5aRA (PMX-53) that inhibits periodontal inflammatory responses. Briefly, 0.1, 1, or 10 μg C5aRA (or a PBS control) were administered through 1-μl microinjections (using a 28.5-gauge MicroFine needle) on the mesial of the first molar and in the papillae between first and second and third molars, on both sides of the maxilla. These treatments were repeated five times at two day-intervals Immediately following each treatment, the mice were infected orally with Pg in 2% carboxymethylcellulose vehicle (or vehicle only). One week after the last infection, the gingiva were dissected and analyzed by real-time quantitative PCR for mRNA expression of IL-1beta and TNF-alpha (selected as the most typically involved in destructive periodontal inflammation).
Because the antagonist was applied before each Pg infection treatment, this approach was considered preventive. In addition, however, it was determined if C5aRA acts in a therapeutic way (i.e., applied after infection and inflammation occurs). […] The mice were euthanized three days after the last treatment.

iNOS expression = assay: iNOS expression, quantitative real-time PCR, macrophages; type: cell-based, mouse; details: SB216763 10 μM; 8-Br-cAMP 100 μM; 4 hours
Protocol: Gene expression in resting or activated mouse macrophages was quantified using quantitative real-time PCR. Briefly, RNA was extracted from cell lysates using the PerfectPure RNA cell kit (5 Prime, Fisher) and quantified by spectrometry at 260 and 280 nm. The RNA was reverse-transcribed using the High-Capacity cDNA Archive kit (Applied Biosystems) and quantitative real-time PCR with cDNA was performed using the ABI 7500 Fast System, according to the manufacturer's protocol (Applied Biosystems). TaqMan probes, sense primers, and antisense primers for expression of a house-keeping gene (GAPDH) or iNOS (or the genes shown in FIG. 7) were purchased from Applied Biosystems.

[7] = C5aRA 1 μM, U0126 10 μM, wortmannin 100 nM
[8] = pretreatment 1 μM C5aRA and/or 1 mM L-NAME or D-NAME, Pg with C5a 50 nM, 24 hours
[9] = 1 pg applied twice weekly, four times, starting 2 weeks after five oral infections
[10] = 1 μg C5aRA microinjection before each of five Pg infections, one week after last infection

## N#CC(=C(/N)Sc1ccccc1N)/C(C#N)=C(\N)Sc1ccccc1N [U0126]
IL-12p70 production
  LPS-induced IL-12p70 without C5a: appeared to up-regulate
IL-12p70 production; [7]
  P. gingivalis-induced IL-12p70 without exogenous C5a: appeared to up-regulate
  reversal of C5a inhibition of P. gingivalis- or LPS-induced IL-12p70: abrogated

## pertussis toxin
Intracellular cAMP
  effect on the synergistic C5a effect on P. gingivalis-induced cAMP: Significant reversal

## NC(N)=NCCC[C@H](NC(=O)COCC(c1ccccc1)c1ccccc1)C(=O)O [SB290157]
IL-12p70 production
  reversal of the inhibitory effect of C5a^desArg on IL-12p70: did not influence

## c1cc(CN2CCCNCCNCCCNCC2)ccc1CN1CCCNCCNCCCNCC1 [AMD3100]
Intracellular cAMP
  effect on the synergistic C5a effect on P. gingivalis-induced cAMP: modestly attenuated

## PKI 6-22: peptide inhibitor of PKA
Nitric oxide production
  reversal of the inhibitory C5a effect on nitric oxide: reversed
[1]
  effect on synergistic C5a + P. gingivalis Ser9-phosphorylation of GSK3β: inhibited

## acetylated phenylalanine-(ornithine-proline-(D)cyclohexylalanine-tryptophan-arginine) [C5aRA]
[2]; [8]
  effect on C5a-protected P. gingivalis intracellular viability: counteracted the protective effect of C5a
Intracellular cAMP
  effect on the synergistic C5a effect on P. gingivalis-induced cAMP: totally abrogated
P. gingivalis [3]; 24 hours post-infection
  bacteremia (blood culture for P. gingivalis): no bacteremia could be detected
P. gingivalis [3]; C5aRA i.p. 25 μg/mouse, 24 h post-infection
  less P. gingivalis CFU in peritoneal lavage fluid compared to PBS control: about 2 log10 units
P. gingivalis [3]; C5aRA i.p. 1 mg/Kg body weight, 24 hours post-infection
  reduction of P. gingivalis CFU in peritoneal lavage fluid vs control mice: > 95%
P. gingivalis [3]; C5aRA i.p., 24 hours postinfection
  nitric oxide production in peritoneal fluid relative to control mice: elevated nitric oxide production
[4]
  IFN-gamma level in peritoneal fluid vs PBS-treated wild-type controls: significantly higher levels
  IL-12p70 level in peritoneal fluid vs PBS-treated wild-type controls: significantly higher levels
  IL-23 level in peritoneal fluid vs PBS-treated wild-type controls: significantly higher levels
  induction of IL-1beta production in peritoneal fluid: inhibited
  induction of IL-6 production in peritoneal fluid: inhibited
  induction of TNF-alpha production in peritoneal fluid: inhibited
IL-12p70 production; C5aRA 1 μM
  KDP128-induced IL-12p70 in the absence of exogenously added C5a: had no effect
IL-12p70 production; [7]
  LPS-induced IL-12p70 without C5a: not seen
  P. gingivalis-induced IL-12p70 without exogenous C5a: significantly enhanced
  reversal of C5a inhibition of P. gingivalis- or LPS-induced IL-12p70: completely reversed
IL-12p70 production; C5a^desArg 50 nM, C5aRA 1 μM, A8^Δ71-73 1 μM, SB290157 5 μM
  reversal of the inhibitory effect of C5a^desArg on IL-12p70: full reversal
P. gingivalis [5]
  Pg viable counts in chamber fluid: reduced Pg viable counts
[6]; [9]
  induction of IL-1beta mRNA in gingiva, therapeutic: significantly reversed induction
  induction of TNF-alpha mRNA in gingiva, therapeutic: significantly reversed induction
[6]; [10]
  induction of IL-1beta mRNA in gingiva, preventive: highly effective in inhibiting induction
  induction of TNF-alpha mRNA in gingiva, preventive: highly effective in inhibiting induction
[6]; IL-1beta and TNF-alpha mRNA, preventive
  efficacy of 1 μg dose compared with 10-fold higher dose: not significantly different

## COc1cccc(-c2cc(=O)c3ccccc3o2)c1N [PD98059]
[1]
  effect on synergistic C5a + P. gingivalis Ser9-phosphorylation of GSK3β: not

## COC(=O)[C@H](N)CCCN=C(N)N[N+](=O)[O-] [D-NAME, N(G)-nitro-D-arginine methyl ester]
[2]
  effect on C5a-protected P. gingivalis intracellular viability: had no effect

## Cn1cc(C2=C(c3ccc(Cl)cc3Cl)C(=O)NC2=O)c2ccccc21 [SB216763]
Nitric oxide production; SB216763 10 μM, 8-Br-cAMP 100 μM
  P. gingivalis-induced nitric oxide production: mimicked the inhibitory C5a effect
iNOS expression
  P. gingivalis-induced iNOS expression: mimicked the inhibitory C5a effect

## O=C(O)CN(CCOCCOCCN(CC(=O)O)CC(=O)O)CC(=O)O [EGTA]
Intracellular cAMP
  effect on the synergistic C5a effect on P. gingivalis-induced cAMP: relatively minimal and statistically insignificant effect

## O=S(=O)(NCCNC/C=C/c1ccc(Br)cc1)c1cccc2cnccc12 [H89]
Nitric oxide production
  reversal of the inhibitory C5a effect on nitric oxide: reversed

## Nc1ncnc2c1ncn2C1CCCO1 (stereo not shown) [SQ22536]
Nitric oxide production
  reversal of the inhibitory C5a effect on nitric oxide: reversed

## C/C=C(/C)C(=O)O[C@H]1C(C)=C2[C@H]([C@@H]1OC(=O)CCCCCCC)[C@@](C)(OC(C)=O)C[C@H](OC(=O)CCC)[C@@]1(O)[C@H]2OC(=O)[C@@]1(C)O [thapsigargin]
Intracellular cAMP
  effect on the synergistic C5a effect on P. gingivalis-induced cAMP: abrogated

## COC(=O)[C@@H](N)CCCNC(=N)N[N+](=O)[O-] [L-NAME, N(G)-nitro-L-arginine methyl ester]
[2]; [8]
  effect on C5a-protected P. gingivalis intracellular viability: mimicked C5a and overrode the C5aRA effect
